In brackets after ≈: the same amount, converted by molar mass.

Data set [1] addresses T1, Solute carrier family 22 member 2 (Homo sapiens, UniProt O15244).
T1 sequence (O15244 whole entry): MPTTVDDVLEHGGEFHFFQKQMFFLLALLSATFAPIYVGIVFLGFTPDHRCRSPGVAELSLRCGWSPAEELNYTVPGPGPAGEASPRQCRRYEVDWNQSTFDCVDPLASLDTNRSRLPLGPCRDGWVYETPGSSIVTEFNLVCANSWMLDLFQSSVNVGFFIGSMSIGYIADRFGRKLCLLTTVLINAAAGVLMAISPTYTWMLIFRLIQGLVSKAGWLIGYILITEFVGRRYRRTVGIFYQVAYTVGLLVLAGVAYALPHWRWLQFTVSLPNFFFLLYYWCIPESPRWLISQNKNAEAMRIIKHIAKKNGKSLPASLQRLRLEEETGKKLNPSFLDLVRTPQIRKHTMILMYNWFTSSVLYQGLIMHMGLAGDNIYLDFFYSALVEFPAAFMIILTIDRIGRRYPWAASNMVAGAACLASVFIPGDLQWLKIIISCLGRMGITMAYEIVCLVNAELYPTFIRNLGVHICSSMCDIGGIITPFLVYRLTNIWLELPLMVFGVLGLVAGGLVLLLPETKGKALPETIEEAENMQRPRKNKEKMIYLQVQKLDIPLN
Description: Inhibition of human OCT2 transfected in HEK293 cells assessed as decrease in intracellular ASP accumulation at 100 uM incubated for 10 mins followed by incubation with ASP for 5 mins by fluorescence based analysis. Particulars: hek293, 0.25 h, time 15 min. It is filed as cell-based.

Data set [2] addresses Solute carrier family 22 member 1 (Homo sapiens, UniProt O15245). Description: Inhibition of human OCT1 transfected in HEK293 cells assessed as decrease in intracellular ASP accumulation at 200 uM incubated for 10 mins followed by incubation with ASP for 5 mins by fluorescence based analysis. It counts as cell-based. Particulars: hek293, 0.25 h, time 15 min.
The test system of data set [3] is Pseudomonas aeruginosa. Description: Antibacterial activity against multidrug-resistant Pseudomonas aeruginosa 126 assessed as inhibition of bacterial growth incubated for 24 hrs by broth microdilution method. It is filed as functional. On the technique in general: In broth dilution the organism is exposed to a series of concentrations in liquid medium.
The subject of data set [4] is Salmonella enterica. Put plainly: Antibacterial activity against Salmonella enterica ATCC 14028 assessed as inhibition of bacterial growth incubated for 24 hrs by broth microdilution method. It is filed as functional.
Data set [5] deals with Staphylococcus aureus. Put plainly: Antibacterial activity against methicillin-resistant Staphylococcus aureus 222 assessed as inhibition of bacterial growth incubated for 24 hrs by broth microdilution method. It is filed as functional.
A short description of data set [6]: Aqueous solubility of the compound incubated for 12 hrs by UV-Vis spectrophotometry. It counts as physicochemical. Particulars: buffer.
For data set [7], the system named is Staphylococcus aureus. Put plainly: Antibacterial activity against methicillin-resistant Staphylococcus aureus 596 assessed as inhibition of bacterial growth incubated for 24 hrs by broth microdilution method. It counts as functional.
A short description of data set [8]: Cytotoxicity against human HEK293 cells assessed as reduction in cell viability incubated for 24 hrs by CCK8 assay. It counts as toxicity, cell-based.
The test system of data set [9] is Staphylococcus aureus. Put plainly: Antibacterial activity against methicillin-resistant Staphylococcus aureus ATCC 33591 assessed as inhibition of bacterial growth incubated for 24 hrs by broth microdilution method. It is filed as functional.
Data set [10] in a line: Cytotoxicity against human A549 cells assessed as reduction in cell viability incubated for 24 hrs by CCK8 assay. It is filed as toxicity, cell-based.
Data set [11] deals with Staphylococcus aureus. Description: Antibacterial activity against Staphylococcus aureus ATCC 29213 assessed as inhibition of bacterial growth incubated for 24 hrs by broth microdilution method. It counts as functional.
Data set [12] concerns Staphylococcus aureus. Description: Antibacterial activity against methicillin-resistant Staphylococcus aureus 575 assessed as inhibition of bacterial growth incubated for 24 hrs by broth microdilution method. It counts as functional.
Data set [13] has as its system Staphylococcus epidermidis. Description: Antibacterial activity against methicillin-resistant Staphylococcus epidermidis ATCC 51625 assessed as inhibition of bacterial growth incubated for 24 hrs by broth microdilution method. It is filed as functional.
Data set [14] has as its system Acinetobacter baumannii. Description: Antibacterial activity against carbapenem-resistant Acinetobacter baumannii 882 assessed as inhibition of bacterial growth incubated for 24 hrs by broth microdilution method. It is filed as functional.
Data set [15] deals with Enterococcus. Put plainly: Antibacterial activity against vancomycin-resistant Enterococcus 80 assessed as inhibition of bacterial growth incubated for 24 hrs by broth microdilution method. It is filed as functional.
Data set [16] deals with Klebsiella pneumoniae. Put plainly: Antibacterial activity against multidrug-resistant Klebsiella pneumoniae 893 assessed as inhibition of bacterial growth incubated for 24 hrs by broth microdilution method. It is filed as functional.
Data set [17] concerns Staphylococcus aureus. Put plainly: Antibacterial activity against methicillin-resistant Staphylococcus aureus 206 assessed as inhibition of bacterial growth incubated for 24 hrs by broth microdilution method. It counts as functional.
For data set [18], the system named is Escherichia coli. Put plainly: Antibacterial activity against Escherichia coli CMCC 44103 assessed as inhibition of bacterial growth incubated for 24 hrs by broth microdilution method. It counts as functional.
Data set [19] concerns Acinetobacter baumannii. Put plainly: Antibacterial activity against Acinetobacter baumannii ATCC 19606 assessed as inhibition of bacterial growth incubated for 24 hrs by broth microdilution method. It is filed as functional.
Data set [20] concerns Staphylococcus aureus. Put plainly: Antibacterial activity against methicillin-resistant Staphylococcus aureus ATCC 43300 assessed as inhibition of bacterial growth incubated for 24 hrs by broth microdilution method. It counts as functional.
For data set [21], the system named is Staphylococcus aureus. Put plainly: Antibacterial activity against methicillin-resistant Staphylococcus aureus 171 assessed as inhibition of bacterial growth incubated for 24 hrs by broth microdilution method. It counts as functional.
Data set [22] is described as follows: Cytotoxicity against human HepG2 cells assessed as reduction in cell viability incubated for 24 hrs by CCK8 assay. It counts as toxicity, cell-based. (In general: Formazan colour is commonly taken as a measure of viable cells.)
Data set [23] has as its system Escherichia coli. Put plainly: Antibacterial activity against Escherichia coli ATCC 25922 assessed as inhibition of bacterial growth incubated for 24 hrs by broth microdilution method. It is filed as functional.
Data set [24] in a line: Toxicity against methicillin-resistant Staphylococcus aureus ATCC33591 infected systemic intraperitoneal infection Kunming mouse model assessed as animal's mortality at 5 mg/kg, ip treated at 1 hr post-infection and measured after 7 days. It is filed as organism-based. The conditions noted are these: in vivo, 168 h, time 7 day.
Data set [25] concerns Staphylococcus aureus. Description: Antibacterial activity against methicillin-resistant Staphylococcus aureus ATCC33591 infected in systemic intraperitoneal infection Kunming mouse model assessed as decrease in inflammation, neutrophil infiltration and disordered spleen structure at 5 mg/kg, ip treated at 1 hr post-infection and measured after 7 days by Hematoxylin-Eosin staining based analysis. It is filed as functional, organism-based. Particulars: time 7.0 day.

In data set [26] the test system is Staphylococcus aureus. Put plainly: Antibacterial activity against methicillin-resistant Staphylococcus aureus ATCC33591 infected in systemic intraperitoneal infection Kunming mouse model assessed as decrease in inflammation and neutrophil infiltration in kidney at 5 mg/kg, ip treated at 1 hr post-infection and measured after 7 days by Hematoxylin-Eosin staining based analysis. It counts as functional, organism-based. Particulars: time 7.0 day.

The test system of data set [27] is Staphylococcus aureus. Description: Antibacterial activity against methicillin-resistant Staphylococcus aureus ATCC33591 infected in systemic intraperitoneal infection Kunming mouse model assessed as decrease in inflammation, neutrophil infiltration, alveolar structure destruction, leukocyte infiltration, interstitial thickening in lungs at 5 mg/kg, ip treated at 1 hr post-infection and measured after 7 days by Hematoxylin-Eosin staining based analysis. The conditions noted are these: time 7.0 day. It is filed as functional, organism-based.

The test system of data set [28] is Staphylococcus aureus. Description: Antibacterial activity against methicillin-resistant Staphylococcus aureus ATCC33591 infected in systemic intraperitoneal infection Kunming mouse model assessed as decrease in inflammation and neutrophil infiltration in liver at 5 mg/kg, ip treated at 1 hr post-infection and measured after 7 days by Hematoxylin-Eosin staining based analysis. It counts as functional, organism-based. The conditions noted are these: time 7.0 day.

Sequence of Solute carrier family 22 member 1 (O15245 whole entry): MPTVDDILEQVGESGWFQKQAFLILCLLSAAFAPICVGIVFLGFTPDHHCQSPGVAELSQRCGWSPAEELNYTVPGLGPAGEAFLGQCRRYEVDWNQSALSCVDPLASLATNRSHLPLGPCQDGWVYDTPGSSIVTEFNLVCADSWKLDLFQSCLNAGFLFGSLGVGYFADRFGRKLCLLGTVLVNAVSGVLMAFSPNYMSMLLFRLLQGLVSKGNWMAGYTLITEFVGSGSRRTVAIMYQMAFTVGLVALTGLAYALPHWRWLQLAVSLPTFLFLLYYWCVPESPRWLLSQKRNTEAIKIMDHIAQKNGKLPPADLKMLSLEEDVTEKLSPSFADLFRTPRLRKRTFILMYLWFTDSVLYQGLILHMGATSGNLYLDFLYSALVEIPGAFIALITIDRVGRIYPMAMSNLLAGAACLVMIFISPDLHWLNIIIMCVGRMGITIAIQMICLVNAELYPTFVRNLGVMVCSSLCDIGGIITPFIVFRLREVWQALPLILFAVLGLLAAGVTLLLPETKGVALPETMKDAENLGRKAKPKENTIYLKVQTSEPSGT

Regarding `CN(C)CCC=C1c2ccccc2CCc2ccccc21` [AMITRIPTYLINE], the “inhibition (INH)” value in data set [1] and in data set [2] was “Active” each time.
In the case of `C=C[C@]1(C)C[C@@H](OC(=O)CSc2nc3cc[n+](Cc4ccc(C#N)cc4)cc3s2)[C@]2(C)[C@H](C)CC[C@]3(CCC(=O)[C@H]32)[C@@H](C)[C@@H]1O.[Br-]`, the MIC (usually the smallest concentration in the dilution series that meets the test's criterion for growth inhibition) was 32 µg/mL in [3]; under 2 µg/mL in data set [4]; 16 µg/mL in data set [5]; 8 µg/mL in data set [7]; under 2 µg/mL in data set [9]; under 2 µg/mL in [11]. Further, the MIC in data set [12] is 32 µg/mL; in data set [13] it was under 2 µg/mL; in data set [14], 64 µg/mL; in data set [15], 16 µg/mL; in data set [16], 16 µg/mL; in data set [17] it was 64 µg/mL. Moreover, the minimum inhibitory concentration (MIC) is under 2 µg/mL in [18]; under 2 µg/mL in data set [19]; under 2 µg/mL in data set [20]; 16 µg/mL in data set [21]; under 2 µg/mL in [23]. In data set [6], the solubility (usually the dissolved amount per volume that the medium holds) at 12 h turned out to be 451 µg/mL. Besides, the 50% cytotoxic concentration (CC50) (as a rule, the concentration at which the toxic effect on the cells reaches its halfway point) at 24 h in data set [8] is 18.2 µM; in data set [10] it was over 100 µM; in data set [22], 78.5 µM.
Take `C=C[C@]1(C)C[C@@H](OC(=O)CSC(C)(C)CNC(=O)[C@H](N)C(C)C)[C@]2(C)[C@H](C)CC[C@]3(CCC(=O)[C@H]32)[C@@H](C)[C@@H]1O` [VALNEMULIN]: the Activity entry in data set [24] is reported as “Toxic”; in data set [25] it was “Active; Slight Without Complete Recovery Observed”; in data set [26], “Active; Slight Without Complete Recovery Observed”; in [27], “Active; Slight Without Complete Recovery Observed”; in [28] it was “Active; Slight Without Complete Recovery Observed”. In addition, the MIC in [3] was 64 µg/mL (≈ 113 µM); in [5], 64 µg/mL (≈ 113 µM); in data set [7], over 128 µg/mL; in data set [12], 128 µg/mL (≈ 227 µM); in [14] it was 64 µg/mL (≈ 113 µM); in [15], 64 µg/mL (≈ 113 µM). For the same compound, the MIC in [16] was 32 µg/mL (≈ 56.7 µM); in [17], 64 µg/mL (≈ 113 µM); in [21], over 128 µg/mL. The compound further yielded a solubility at 12 h in [6] of 218 µg/mL (≈ 386 µM). The CC50 at 24 h is 65.4 µM in data set [8], 53.7 µM in data set [10] and 77.3 µM in data set [22].

The record behind these values is ChEMBL document CHEMBL6096719, “Kidney Targeting Smart Antibiotic Discovery: Multimechanism Pleuromutilins for Pyelonephritis Therapy” (J Med Chem, 2025).
